Source: article PMC5510229, “BCAT1 controls metabolic reprogramming in activated human macrophages and is associated with inflammatory diseases” (Nature Communications, 2017)

Columns and labels:
recombinant human BCAT2 = target: T1, recombinant human BCAT2 (Homo sapiens, UniProt O15382); test: BCAT2 aminotransferase enzymatic assay (continuous fluorometric); assay type: biochemical
T1 construct: purchased Abcam
T1 sequence (O15382 28-392): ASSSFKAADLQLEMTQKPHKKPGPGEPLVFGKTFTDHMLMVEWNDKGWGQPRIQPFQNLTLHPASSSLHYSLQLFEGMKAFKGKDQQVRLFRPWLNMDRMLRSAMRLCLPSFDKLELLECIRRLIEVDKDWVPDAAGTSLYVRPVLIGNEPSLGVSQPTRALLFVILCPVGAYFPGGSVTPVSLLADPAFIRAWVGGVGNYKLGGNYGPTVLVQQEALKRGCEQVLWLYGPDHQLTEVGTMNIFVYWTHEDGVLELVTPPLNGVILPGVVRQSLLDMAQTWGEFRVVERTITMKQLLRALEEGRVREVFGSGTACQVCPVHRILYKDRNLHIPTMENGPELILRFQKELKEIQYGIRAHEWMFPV

[1] = Uptake and metabolism of ERG240 in human macrophage lysates by GC/MS; assay type: in vitro ADME
Text: NCOMMS-16-23550_Point by Point Responses Papathanassiu et al.
Add additional explanation for “extracellular space” findings because this is unclear.
Authors’ reply. ‘Extracellular space’ has now been replaced by ‘extracellular matrix genes’ in the revised manuscript (Figure 3 in the submitted manuscript which is now Figure 4 in the revised one). We have also added a Volcano plot showing the differentially expressed genes (Figure 4E in the revised manuscript).
Authors fail to cite and discuss this paper found in quick google search “ Nemeth, B.; Doczi, J.; Csete, D.; Kacso, G.; Ravasz, D.; Adams, D.; Kiss, G.; Nagy, A. M.; Horvath, G.; Tretter, L.; Mocsai, A.; Csepanyi-Komi, R.; Iordanov, I.; Adam-Vizi, V.; Chinopoulos, C. (2015).
“Abolition of mitochondrial substrate-level phosphorylation by itaconic acid produced by LPS-induced Irg1 expression in cells of murine macrophage lineage”. The FASEB Journal.
Authors’ reply. This paper is now cited and discussed by adding this following paragraph to the discussion (highlighted text).
Besides its antimicrobial effects, itaconate has been proposed as an inhibitor of substrate level phosphorylation (SLP) through its effect on succinate-CoA ligase in RAW-264.7 cells1.
Statistical analysis (or indications in figures) is lacking in Fig 1C. Fig 4C.
Authors’ reply. Statistical analyses are added for Fig 1C and 4C. Please note that Figure
4C is now Figure 5C in the revised manuscript. (See also highlighted text in figure legends).
Dosing in vitro should be discussed further- 20mM in vitro is a high dose if IC50 is in nM […]
Authors’ reply. ERG240 is a structural analogue of leucine, designed based on the X-ray crystal structure of BCAT1 and, as the reviewer correctly states, it can inhibit BCAT1 within 0.1-1nM range of IC50. The concentration of 20 mM used in the cellular assays is because […]
possible competition with leucine, which is in mM concentration (0.381 mM) in the RPMI media used throughout the study. […]
A cartoon of metabolites regulated would aid the reader. […]
ERG240 can easily be detected […]

SMILES: CC(=O)C(C)CCC(=O)O (stereo not shown) [ERG240]
- inhibition of BCAT2 (recombinant human BCAT2): no inhibition
- uptake of the compound by cells ([1]; 1x10^6 cells treated with 3.28 mg ERG240 (20 mM)): 0.8 to 3 ng
- estimated intracellular ERG240 concentration ([1]; human macrophages treated with 20 mM): 70 to 260 nM
- cellular metabolism of the drug ([1]; lysates of human macrophages, GC/MS): does not undergo any cellular metabolic reaction
